Experimental data as given in ChEMBL document CHEMBL4393654, “Discovery and Early Clinical Development of an Inhibitor of 5-Lipoxygenase Activating Protein (AZD5718) for Treatment of Coronary Artery Disease” (J Med Chem, 2019).

Key:
[1] = Cardiotoxicity in dog assessed as effect on cardiac function measured up to 28 days during compound dosing; type: toxicity, Canis lupus familiaris; settings: in vivo, 672 h
[2] = tested on: Cytochrome P450; assay: Drug metabolism in human hepatocytes assessed as CYP450-mediated phase-2 glucuronidation/oxidation at 4 uM measured after 120 mins by LC-MS/MS analysis; type: ADME, cell-based, Hepatocyte; settings: 2 h
[3] = Oral bioavailability in rat at 2 umol/kg; type: ADME, organism-based; settings: in vivo

| Structure (SMILES) | Activity [1] | Drug metabolism [2] | bioavailability [3] [%] |
| --- | --- | --- | --- |
| Cc1cc(-c2ccc(C(=O)[C@@H]3CCCC[C@H]3C(=O)Nc3cnn4c3C(=O)NCC4)cc2)[nH]n1 | Non-Toxic | Metabolite_Detected | – |
| Cc1cc(-c2ccc(C(=O)[C@@H]3CCCC[C@H]3C(=O)Nc3cnn(C)c3C(=O)NOC(C)(C)C)cc2)[nH]n1 | – | – | 12 |
